Assay results as given in US20090131306A1, “CHEMICALLY MODIFIED CYCLIC PEPTIDES CONTAINING CELL ADHESION RECOGNITION (CAR) SEQUENCES AND USES THEREFOR” (ADHEREX TECHNOLOGIES, INC., priority 2007, published 2009).
*1 amine or outer side, *2 acyl side, *3 side chain or, on linkers, in order; H or OH if unused. Where a SMILES comes first, the peptide text is derived from it. Bridges are numbered along the chain shown (N, C = ends). [ ]: non-standard residue; d: D form. Phe(4-yl) = O=C([C@H](Cc1ccc([*:3])cc1)N[*:1])[*:2]

Tests used:
Aqueous solubility = type: physicochemical; settings: result in words
Stability testing in PBS = settings: result in words, relative to unmodified ADH-1
[1] = Stability testing in human whole blood; settings: for stability in whole blood: human whole blood, result in words, relative to unmodified ADH-1
[2] = humans, following i.v. administration; cited from earlier work

aqueous solubility (Aqueous solubility)	stability in PBS (Stability testing in PBS)	stability in whole blood [1]	half-life ([1]; human, whole blood) [h]	Compound	circulating half-life [2] [h]	excreted unchanged in the urine [2] [%]
relatively low	much less so	much less so	–	CC(=O)N[C@H]1CSCc2cccc(c2)CSC[C@@H](C(N)=O)NC(=O)[C@H](C(C)C)NC(=O)[C@H](C)NC(=O)[C@H](Cc2c[nH]cn2)NC1=O [ADH100705-T]	–	–
–	failed to result in improved stability	failed to result in improved stability	–	CC(=O)N[C@H]1CSCC(=O)CSC[C@@H](C(N)=O)NC(=O)[C@H](C(C)C)NC(=O)[C@H](C)NC(=O)[C@H](Cc2c[nH]cn2)NC1=O [ADH100706-T]	–	–
–	stable	stable	–	CC(=O)NC1CSCc2ccccc2CSCC(C(N)=O)NC(=O)[C@H](C(C)C)NC(=O)[C@H](C)NC(=O)[C@H](Cc2c[nH]cn2)NC1=O (stereo partly drawn) [ADH100710-T, 8R, 11S, 14S, 17S, 20R 20-Acetylamino-17-(1H-imidazol-4-ylmethyl)-11-isopropyl-14-methyl-10,13,16,19-tetraoxo-5,7,8,10,11,12,13,14,15,16,17,18,19,20,21,23-hexadecahydro-9H-6,22-dithia-9,12,15,18-tetraaza-benzocyclohenicosene-8-carboxylic acid amide]	–	–
–	stable	stable	–	CC(=O)NC1CSCC(O)CSCC(C(N)=O)NC(=O)[C@H](C(C)C)NC(=O)[C@H](C)NC(=O)[C@H](Cc2c[nH]cn2)NC1=O (stereo partly drawn) [ADH100713-T, 3R, 6S, 9S, 12S, 15R 15-Acetylamino-19-hydroxy-12-(1H-imidazol-4-ylmethyl)-6-isopropyl-9-methyl-5,8,11,14-tetraoxo-1,17-dithia-4,7,10,13-tetraaza-cycloicosane-3-carboxylic acid amide]	–	–

Continued, compound first:

Compound	aqueous solubility (Aqueous solubility)	stability in PBS (Stability testing in PBS)	stability in whole blood [1]	half-life ([1]; human, whole blood) [h]	circulating half-life [2] [h]	excreted unchanged in the urine [2] [%]
CC(=O)N[C@H]1CSSC[C@@H](C(N)=O)NC(=O)[C@H](C(C)C)NC(=O)[C@H](C)NC(=O)[C@H](Cc2c[nH]cn2)NC1=O [ADH-1, N-Ac-CHAVC-NH2]	–	–	–	~2	2.5	30
CC(=O)N[C@H]1CSC[C@H](O)CSC[C@@H](C(N)=O)NC(=O)[C@H](C(C)C)NC(=O)[C@H](C)NC(=O)[C@H](Cc2c[nH]cn2)NC1=O [ADH-100712-T]	–	stable	failed to show improved stability	–	–	–
CC(=O)N[C@H]1Cc2ccc(cc2)SC[C@@H](C(N)=O)NC(=O)[C@H](C(C)C)NC(=O)[C@H](C)NC(=O)[C@H](Cc2c[nH]cn2)NC1=O [ADH-100716-T, 4R, 7S, 10S, 13S, 16S 16-Acetylamino-13-(1H-imidazol-4-ylmethyl)-7-isopropyl-10-methyl-6,9,12,15-tetraoxo-2-thia-5,8,11,14-tetraaza-bicyclo[16.2.2]docosa 1(21), 18(22), 19-triene-4-carboxylic acid amide] (Ac-[Phe(4-yl)]HAVC-NH2; thioether 1-5)	–	–	improved blood stability	–	–	–
